What all share (type): cell-based, human
Assay [1] has as its system MMP9. The assay is described as follows: MMP9 level in hESC conditioned media by ELISA. Particulars: heparin treatment, all hESC conditions. As to the method: (§1) MMP2 and MMP9 pro and active protein forms were evaluated by commercial ELISA analysis (RayBiotech, GA, USA). These assays employ an antibody specific for humans MMP-2 and MMP-9 coated on a 96-well plate. Standards and samples are pipette by duplicated into the wells and MMP-2 and MMP-9 present in a sample is bound to the wells by the immobilized antibody. Biotinylated anti-human MMP-2 and MMP-9 and HRP-conjugated streptavidin were added. TMB substrate solutions were added and absorbance at 450 nm was extrapolated to standard curve.
(§2) hESCs were cultured on monolayer in presence of 50 μg/mL and 100 μg/mL of heparin (Sigma, Madrid, during 15, 30 and 60 min to elaborate a dose-response experiment. Conditioned media from hESC cells were collected to analyze plasminogen levels, plasmin activity and metalloproteases production.

The subject of assay [2] is ANXA2. Kind of assay: Secreted extracellular ANXA2 in hESC conditioned media by ELISA. The note with it: heparin treatment; control, ANXA2 siRNA and sPE hESCs. As to the method: Protein extracts (2 μg/well) and conditioned media were analyzed by ELISA (R&D Systems, MN, USA). Inmobilized capture antibody specifically binds Annexin A2. After washing away un-bounded material, a biotinylated detection antibody specific for Annexin A2 is used to detect the bound Annexin A2, using a standard Streptavidin-HRP format. Three replicates were performed for each condition and the absorbance values were extrapolated to standard curve to establish human Annexin A2 concentration (pg/mL).
as §2
(In general: In an ELISA, binding on a coated surface is turned into a signal by an enzyme label.)

Assay [3] concerns plasmin. The assay is described as follows: Plasmin activity in hESC conditioned media, fluorimetric assay. The note with it: heparin 100 ug/mL. As to the method:
Plasmin activity was measured in conditioned media by fluorimetric assay kit (Anaspec, CA, USA). It is based in a protease cleavage to plasmin substrate that generates a rhodamine 110 fluorophore which has a bright green fluorescence detected at 496 nm/520 nm (excitation/emission). Fifty microlitres of conditioned media was pre-incubated 10 min at room temperature and 50 uL of plasmin substrate solution was added into each well. Fluorescence signal was obtain for kinetic reading immediately start measuring and record data every 5 min for 60 min, with a total of 13 lectures. Each condition was evaluated in duplicate. The fluorescence was Interpol to concentration values using an Rh110 fluorescence reference standard.
as §2

Assay [4] relates to MMP2. The assay is described as follows: MMP2 level in hESC conditioned media by ELISA. Particulars: heparin treatment, all hESC conditions. As to the method:
as §1, §2

In assay [5] the test system is plasminogen. Kind of assay: Plasminogen level in hESC conditioned media by ELISA. Particulars: heparin 100 ug/mL; control siRNA, ANXA2 siRNA, non-PE and sPE decidualized hESCs (all conditions). As to the method: Plasminogen level was evaluated in conditioned media by ELISA kit (Cell Biolabs, CA, USA) following manufacturer's instructions. Average absorbance (Δ450 nm) in duplicate wells was calculated by subtracting the background from wells with media without hESC.
as §2

As for heparin, the MMP9 production entry in assay [1] is recorded as “significant increase”. Besides, the “ANXA2 protein secreted to the culture media” value in assay [2] is “significant increase”. For the same substance, in assay [3] (ANXA2 siRNA hESCs and hESCs from sPE), the Plasmin activity entry is on record as “significant increase”. Also, the “Plasmin activity in conditioned media” value in assay [3] (control siRNA, ANXA2 siRNA, non-PE and sPE decidualized hESCs (all conditions)) is “significantly increased”. For the same substance, the MMP2 production entry in assay [4] is “significant increase”. In assay [5], the “Plasminogen secretion into the conditioned media” value is given as “significantly increased”.
